Experimental data as given in patent US8163756B2 (priority 2004, dated 2012).
Structures can show the parent of a compound that is named as a salt. Where two headings read alike, the source gives them in different places.

Assays:
Format in all cases: biochemical
[1] = molecular target: T1, Abl kinase (Homo sapiens, UniProt P00519); test: Abl kinase assay A2 (as A1, 1.1 nM enzyme, 2 h pre-incubation, 0.5 mM ATP)
T1 sequence (P00519 229-512): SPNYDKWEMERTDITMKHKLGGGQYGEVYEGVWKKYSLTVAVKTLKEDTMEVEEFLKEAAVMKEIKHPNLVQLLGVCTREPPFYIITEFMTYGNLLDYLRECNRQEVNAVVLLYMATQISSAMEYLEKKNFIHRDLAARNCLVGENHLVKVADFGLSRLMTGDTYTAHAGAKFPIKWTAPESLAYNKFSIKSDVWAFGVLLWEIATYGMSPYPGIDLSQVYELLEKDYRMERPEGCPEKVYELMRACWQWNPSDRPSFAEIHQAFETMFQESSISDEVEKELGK
Description: IC50 values were calculated from a series of percent inhibition values determined at a range of inhibitor concentrations using software routines as implemented in the GraphPad Prism software package.

[2] = molecular target: B-Raf(V599E) kinase (Homo sapiens, UniProt P15056, V600E); test: B-Raf(V599E) kinase assay B1 (construct 1, MEK1 substrate, coupled spectrophotometric)
Sequence of B-Raf(V599E) kinase (P15056 with tags, fused parts or gaps V600E): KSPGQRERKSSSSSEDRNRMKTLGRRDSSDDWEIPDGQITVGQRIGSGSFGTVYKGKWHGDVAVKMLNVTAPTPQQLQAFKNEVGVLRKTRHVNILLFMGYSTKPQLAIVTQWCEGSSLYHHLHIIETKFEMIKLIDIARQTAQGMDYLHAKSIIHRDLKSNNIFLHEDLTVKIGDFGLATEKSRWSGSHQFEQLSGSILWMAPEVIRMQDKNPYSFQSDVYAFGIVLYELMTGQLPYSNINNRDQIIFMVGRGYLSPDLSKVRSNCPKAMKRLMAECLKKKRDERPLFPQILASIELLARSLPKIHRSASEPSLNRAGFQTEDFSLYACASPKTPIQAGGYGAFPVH
Description: The test compounds were incubated with the reaction mixtureat 30° C. for 2 h. […] The reaction rate was calculated using the […] time frame. […] IC50 values were calculated from a series of percent inhibition values determined at a range of inhibitor concentrations using software routines as implemented in the GraphPad Prism software package.

[3] = molecular target: phosphorylated p-38-alpha kinase (Homo sapiens, UniProt Q16539); test: P-38 alpha kinase assay P1 (coupled spectrophotometric, 2 h pre-incubation); details: method P1 (2 h pre-incubation); read-out: P-38 Data
Sequence of phosphorylated p-38-alpha kinase (Q16539 1-360 isoform Q16539-2): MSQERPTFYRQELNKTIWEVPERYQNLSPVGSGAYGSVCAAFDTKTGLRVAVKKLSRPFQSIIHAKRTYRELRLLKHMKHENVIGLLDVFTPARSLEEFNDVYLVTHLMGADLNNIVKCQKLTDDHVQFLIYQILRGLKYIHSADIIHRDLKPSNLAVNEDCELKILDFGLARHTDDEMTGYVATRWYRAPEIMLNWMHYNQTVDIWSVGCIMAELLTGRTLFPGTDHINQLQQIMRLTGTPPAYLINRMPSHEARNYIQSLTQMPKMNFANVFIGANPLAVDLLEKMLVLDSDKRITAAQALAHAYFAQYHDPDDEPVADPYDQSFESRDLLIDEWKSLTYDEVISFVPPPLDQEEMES

[4] = Method A2, read-out: Abl Data (IC50)

| SMILES | IC50 [1, 4] [nM] | IC50 [2] [nM] | IC50 [3] [nM] | IC50 [1] [nM] |
| --- | --- | --- | --- | --- |
| CC(C)(C)c1cc(NC(=O)Nc2cc(F)cc(F)c2F)n(-c2cc(CO)c3ccccc3c2)n1 [Example 65, 1-(3-t-butyl-1-(4-(hydroxymethyl)naphthalen-2-yl)-1H-pyrazol-5-yl)-3-(2,3,5-trifluorophenyl)urea] | 110 | 3 |  |  |
| CC(C)(C)c1cc(NC(=O)Nc2cccc(Oc3cccnc3)c2)n(-c2cc(CO)c3ccccc3c2)n1 [Example 67, 1-(3-t-butyl-1-(4-(hydroxymethyl)naphthalen-2-yl)-1H-pyrazol-5-yl)-3-(3-(pyridin-3-yloxy)phenyl)urea] | 1 | 4.8 | 35 |  |
| CC(C)(C)c1cc(NC(=O)Nc2cccc(C#N)c2)n(-c2cc(CN)c3ccccc3c2)n1 [Example 73, 1-(1-(4-(aminomethyl)naphthalen-2-yl)-3-t-butyl-1H-pyrazol-5-yl)-3-(3-cyanophenyl)urea] | 190 | 45 |  |  |
| CC(C)(C)c1cc(NC(=O)Nc2cc(F)c(F)cc2F)n(-c2cc(CC(N)=O)c3ccccc3c2)n1 [Example 81, 1-(1-(4-(2-amino-2-oxoethyl)naphthalen-2-yl)-3-t-butyl-1H-pyrazol-5-yl)-3-(2,4,5-trifluorophenyl)urea] | 120 | 4.1 |  |  |
| CC(C)(C)c1cc(NC(=O)Nc2cc(F)c(F)cc2F)n(-c2cc(CC(=O)NCC(O)CO)c3ccccc3c2)n1 (stereo not drawn) [Example 94, 1-(3-t-butyl-1-(4-(2-(2,3-dihydroxypropyl-amino)-2-oxoethyl)naphthalen-2-yl)-1H-pyrazol-5-yl)-3-(2,4,5-trifluorophenyl)urea] | 130 | 4.8 | 68 |  |
| CC(C)(C)c1cc(NC(=O)Nc2cc(F)cc(F)c2F)n(-c2cc(CC(=O)NCC(O)CO)c3ccccc3c2)n1 (stereo not drawn) [Example 95, 1-(3-t-butyl-1-(4-(2-(2,3-dihydroxypropyl-amino)-2-oxoethyl)naphthalen-2-yl)-1H-pyrazol-5-yl)-3-(2,3,5-trifluorophenyl)urea] | 56 | 2.9 |  |  |
| CC(C)(C)c1cc(NC(=O)Nc2cccc(Oc3cccnc3)c2)n(-c2cc(CC(=O)NCC(O)CO)c3ccccc3c2)n1 (stereo not drawn) [Example 97, 1-(3-t-butyl-1-(4-(2-(2,3-dihydroxypropyl-amino)-2-oxoethyl)naphthalen-2-yl)-1H-pyrazol-5-yl)-3-(3-(pyridin-3-yloxy)phenyl)urea] | 1.5 | 7.2 |  |  |
| Cn1c(=O)c(-c2cccc(NC(=O)Nc3cc(C(C)(C)C)nn3-c3ccc4c(c3)CCC(=O)N4)c2)cc2cncnc21 [Example 132, 1-(3-t-butyl-1-(2-oxo-1,2,3,4-tetrahydroquinolin-6-yl)-1H-pyrazol-5-yl)-3-(3-(8-methyl-7-oxo-7,8-dihydropyrido[2,3-d]pyrimidin-6-yl)phenyl)urea] | 13 | 4.8 | 59 |  |
| CC(C)(C)c1cc(NC(=O)Nc2cc(F)c(F)cc2F)n(-c2ccc3c(c2)CCNC3)n1 [Example 146, 1-(3-t-butyl-1-(1,2,3,4-tetrahydroiso-quinolin-6-yl)-1H-pyrazol-5-yl)-3-(2,4,5-trifluorophenyl)-urea] | 190 | 8.8 |  |  |
| CNC(=O)c1cc(Oc2ccc(NC(=O)Nc3cc(C(C)(C)C)nn3-c3ccc4c(c3)CCNC4)cc2)ccn1 [Example 148, 1-(3-t-butyl-1-(1,2,3,4-tetrahydroisoquinolin-6-yl)-1H-pyrazol-5-yl)-3-(4-(2-(methylcarbamoyl)pyridin-4-yloxy)phenyl)urea] | 1.2 | 31 |  |  |
| Cn1c(=O)c(-c2cccc(NC(=O)Nc3cc(C(C)(C)C)nn3-c3ccc4c(c3)CCNC4)c2)cc2cncnc21 [Example 149, 1-(3-t-butyl-1-(1,2,3,4-tetrahydroisoquinolin-6-yl)-1H-pyrazol-5-yl)-3-(3-(8-methyl-7-oxo-7,8-dihydropyrido[2,3-d]pyrimidin-6-yl)phenyl)urea] | 1.2 | 9.3 |  |  |
| CC(C)(C)c1cc(NC(=O)Nc2cccc(Oc3cncc(Cl)c3)c2)n(-c2ccc3c(c2)CCNC3)n1 [Example 150, 1-(3-t-butyl-1-(1,2,3,4-tetrahydroisoquinolin-6-yl)-1H-pyrazol-5-yl)-3-(3-(5-chloropyridin-3-yloxy)phenyl)urea] | 1.3 | 4.7 |  |  |
| Cc1ccc(NC(=O)Nc2cc(C(C)(C)C)nn2-c2ccc3c(c2)CCNC3)cc1Nc1nccc(-c2cccnc2)n1 [Example 153, 1-(3-t-butyl-1-(1,2,3,4-tetrahydroisoquinolin-6-yl)-1H-pyrazol-5-yl)-3-(4-methyl-3-(4-(pyridin-3-yl)pyrimidin-2-ylamino)phenyl)urea dihydrochloride] |  | 27 |  | 1.2 |
| Cn1c(=O)c(-c2cccc(NC(=O)Nc3cc(C4CCCC4)nn3-c3ccc4[nH]c(=O)ccc4c3)c2)cc2cncnc21 [Example 162, 1-(3-cyclopentyl-1-(2-oxo-1,2-dihydroquinolin-6-yl)-1H-pyrazol-5-yl)-3-(3-(8-methyl-7-oxo-7,8-dihydropyrido[2,3-d]pyrimidin-6-yl)phenyl)urea] | 80 | 6.7 |  |  |
| CNC(=O)c1cc(Oc2ccc(NC(=O)Nc3cc(C4CCCC4)nn3-c3ccc4[nH]c(=O)ccc4c3)cc2)ccn1 [Example 163, 1-(3-cyclopentyl-1-(2-oxo-1,2-dihydroquinolin-6-yl)-1H-pyrazol-5-yl)-3-(4-(2-(methylcarbamoyl)pyridin-4-yloxy)phenyl)urea] | 6.3 | 18 |  |  |
| CC(C)(C)c1cc(NC(=O)Nc2cccc(Cl)c2Cl)n(-c2ccc3nc(N4CCNCC4)ccc3c2)n1 [Example 168, 1-(3-t-butyl-1-(2-(piperazin-1-yl)quinolin-6-yl)-1H-pyrazol-5-yl)-3-(2,3-dichlorophenyl)urea] | 1100 | 30 |  |  |
| CNC(=O)c1cc(Oc2ccc(NC(=O)Nc3cc(C(C)(C)C)nn3-c3ccc4nc(N5CCNCC5)ccc4c3)cc2)ccn1 [Example 170, 1-(3-t-butyl-1-(2-(piperazin-1-yl)quinolin-6-yl)-1H-pyrazol-5-yl)-3-(4-(2-(methylcarbamoyl)pyridin-4-yloxy)phenyl)urea] | 1.8 | 40 |  |  |
| CNC(=O)c1cc(Oc2ccc(NC(=O)Nc3cc(C(C)(C)C)nn3-c3ccc4nc(NCCN)ccc4c3)cc2)ccn1 [Example 172, 1-(1-(2-(2-aminoethylamino)quinolin-6-yl)-3-t-butyl-1H-pyrazol-5-yl)-3-(4-(2-(methylcarbamoyl)pyridin-4-yloxy)phenyl)urea] | 1.9 | 29 |  |  |
| CNC(=O)c1cc(Oc2ccc(NC(=O)Nc3cc(C(C)(C)C)nn3-c3ccc4nc(N5CC[C@@H](N(C)C)C5)ccc4c3)cc2)ccn1 [Example 173, 1-(3-t-butyl-1-(2-((R)-3-(dimethylamino)pyrrolidin-1-yl)quinolin-6-yl)-1H-pyrazol-5-yl)-3-(4-(2-(methylcarbamoyl)pyridin-4-yloxy)phenyl)urea] | 4.2 | 63 |  |  |
| CC(C)(C)c1cc(NC(=O)Nc2cccc(Cl)c2Cl)n(-c2ccc3c(=O)[nH]cnc3c2)n1 [Example 194, 1-(3-t-butyl-1-(4-oxo-3,4-dihydroquinazolin-7-yl)-1H-pyrazol-5-yl)-3-(2,3-dichlorophenyl)urea] | 540 |  |  |  |
